Data on 3 compounds can be found in patent US20070004653A1, “Stable lyophilized anthracycline glycosides” (priority 2005, published 2007).

Data set [1] in a line: Stability tests of Doxorubicin HCl solutions at room temperature (aglycone). The data set is classed as physicochemical. How it is done:
Doxorubicin hydrochloride (500 mg) was dissolved in 0.001 N hydrochloric acid (20 ml) at room temperature. The pH of this solution was 3.25.
Doxorubicin hydrochloride (500 mg) was dissolved in 0.1 N acetic acid (20 ml) at room temperature. The pH of this solution was 2.62. After 1 hour, ammonium acetate (4% molar amount with respect to the molar amount of the doxorubicin hydrochloride) was added to the solution and the solution kept at room temperature. The pH rose from 2.62 to 3.02. The results in table 46 show the stability data of this solution at room temperature.
Doxorubicin hydrochloride (500 mg) was dissolved in 0.05 M formic acid (20 ml) at room temperature. The pH of this solution was 2.52. After 1 hour, ammonium acetate (4% molar amount in respect of the molar amount of doxorubicin hydrochloride) was added and the solution kept at room temperature. The pH rose from 2.52 to 2.71.

A short description of data set [2]: Purification of Doxorubicin HCl: solution at pH 3.5 warmed to 60° C., aglycone. The data set is classed as physicochemical. How it is done: Doxorubicin hydrochloride (500 mg) was dissolved in water (10 ml) at room temperature. A small amount of 0.1 N hydrochloric acid was added to lower the pH from 5.4 to 3.5. […]
A short description of data set [3]: Preparation of stable lyophilized anthracycline glycoside hydrochlorides: aglycone and dimer in the lyophilized product. Type of data set: physicochemical. To be noted: frozen and lyophilized. How it is done: Idarubicin hydrochloride (500 mg) was dissolved in water (50 ml) and acetic acid and ammonium acetate (both 1.5% molar amount with respect to the molar amount of idarubicin hydrochloride) were added. The solution was frozen and lyophilized.
Idarubicin hydrochloride (500 mg) was dissolved in water (50 ml) and acetic acid and ammonium acetate (both 1.5% molar amount with respect to the molar amount of idarubicin hydrochloride) were added. Charcoal was then added (100 g) and the solution was stirred for two hours. After that, the suspension was filtered through 0.4 micron membrane and then the solution was frozen and lyophilized.
Doxorubicin hydrochloride (500 mg) was dissolved in water (20 ml) and the pH corrected to 3.5 with acetic acid at room temperature. The solution was then warmed to 60° C. for 2 hours and then ammonium acetate (1.5% molar amount with respect to the molar amount of doxorubicin hydrochloride) was added. Then the solution was quickly frozen and lyophilized.
Epirubicin hydrochloride (1550 mg) was dissolved in water (100 ml) and the pH corrected to 3.2-3.8 with hydrochloric acid at room temperature. The solution was then warmed to 60° C.-65° C. for 1 hours and then the solution was cooled to 50-60° C. At the same time, the pH was corrected to 4.5-5.0 with sodium hydroxide. Then the solution was quickly frozen and lyophilized.
Idarubicin hydrochloride (5.0 g) was dissolved in water (500 ml). Then 58 microlitres of AMBERLITE® IRA-67 (1.6M) acetate (meaning 1.0% molar amount with respect to the molar amount of idarubicin hydrochloride) and 4.5 mg of acetic acid (meaning 0.8% molar amount with respect to the molar amount of idarubicin hydrochloride) were added. The suspension was slurried for two hours, then filtered, frozen and lyophilized.
Doxorubicin hydrochloride (5.0 g) was dissolved in water (200 ml) and the pH corrected to 4.6-4.8 with IN hydrochloric acid at room temperature. Then 80 microlitres of AMBERLITE® IRA-67 (1.6M) acetate (meaning 1.5% molar amount with respect to the molar amount of doxorubicin hydrochloride) was added. The solution was then filtered, frozen and lyophilized.
Epirubicin hydrochloride (1550 mg) was dissolved in water (100 ml) and the pH corrected to 3.2-3.8 with hydrochloric acid at room temperature. The solution was warmed to 60° C.-65° C. for 1 hour and then the solution was cooled to 50-60° C. At the same time, the pH was corrected to 4.5-5.0 with AMBERLITE® IRA-67 free base. Then the solution was quickly filtered, frozen, and lyophilized.

Data set [4] can be described thus: Stability test of stabilized lyophilized Doxorubicin HCl (IRA-67 acetate resin). The data set is classed as physicochemical. How it is done: Starting product was doxorubicin hydrochloride, 2.5% w/v in water. The pH of this solution was corrected to 4.6-4.8 with IN HCl. Then 1.5% molar amount of AMBERLITE® IRA-67 (1.6 M) acetate with respect to doxorubicin hydrochloride was added. After 2 hr of slurrying, the solution was filtered through a 0.4 micron membrane then it was, frozen and lyophilized.

For data set [5] the following is noted: cited from earlier work.

Like-named read-outs stand apart in the source and are kept apart here.

`COc1cccc2c1C(=O)c1c(O)c3c(c(O)c1C2=O)C[C@@](O)(C(=O)CO)C[C@@H]3O[C@H]1C[C@@H](N)[C@H](O)C(C)O1.Cl` (stereo partly drawn) [Doxorubicin HCl, Doxorubicin hydrochloride]: the “% aglycone” value is reported as 0.13% in data set [1] (0.05 M formic acid, after addition of NH4OAc (4% molar), pH 2.71, 0.5 hr - 20° C.); 0.11% in data set [1] (0.05 M formic acid, after addition of NH4OAc (4% molar), pH 2.71, 1.0 hr - 20° C.); 0.12% in data set [1] (0.05 M formic acid, after addition of NH4OAc (4% molar), pH 2.71, 1.5 hr - 20° C.); 0.10% in data set [1] (0.05 M formic acid, after addition of NH4OAc (4% molar), pH 2.71, 2.0 hr - 20° C.); 0.14% in data set [1] (0.05 M formic acid, after addition of NH4OAc (4% molar), pH 2.71, 4.0 hr - 20° C.); 0.24% in data set [1] (500 mg in 0.001 N hydrochloric acid (20 ml), pH 3.25, 20° C., 1.0 hr). Further, the “% aglycone” value in data set [1] (500 mg in 0.001 N hydrochloric acid (20 ml), pH 3.25, 20° C., 3.0 hr) is on record as 0.21%; in data set [1] (500 mg in 0.001 N hydrochloric acid (20 ml), pH 3.25, 20° C., 5.0 hr) it was 0.26%; in data set [1] (500 mg in 0.001 N hydrochloric acid (20 ml), pH 3.25, 20° C., 22.0 hr), 0.25%; in data set [1] (500 mg in 0.05 M formic acid (20 ml), 1.0 hr - 20° C., pH 2.52, before addition of NH4OAc), 0.20%; in data set [2] (500 mg in water (10 ml), pH lowered from 5.4 to 3.5 with hydrochloric acid, 1 hr, 60° C.) it was 0.11%; in data set [2] (500 mg in water (10 ml), pH lowered from 5.4 to 3.5 with hydrochloric acid, 2 hr, 60° C.), 0.31%. The “% aglycone” value in data set [2] (pH 3.5 solution after two hours at 60° C., cooled, 1 hr, 20° C.) was 0.21%; in data set [2] (pH 3.5 solution after two hours at 60° C., cooled, 3 hr, 20° C.), 0.22%; in data set [4] (lyophilized product obtained (IRA-67 acetate treatment)) it was 0.09%; in data set [4] (solution after treatment with 1.5% mol of IRA-67 acetate, slurried 2 hr, filtered, loaded into lyophilizer) it was 0.07%; in data set [4] (starting solid doxorubicin hydrochloride, 2.5% w/v in water, after correcting pH (4.75), before resin treatment), 0.07%. Also, the “% aglycone in doxorubicin HCl” value in data set [1] (0.1 N acetic acid, after addition of NH4OAc (4% molar), pH 3.02, 0.5 hr - 20° C.) is listed as 0.20%; in data set [1] (0.1 N acetic acid, after addition of NH4OAc (4% molar), pH 3.02, 1.0 hr - 20° C.), 0.13%; in data set [1] (0.1 N acetic acid, after addition of NH4OAc (4% molar), pH 3.02, 1.5 hr - 20° C.), 0.12%; in data set [1] (0.1 N acetic acid, after addition of NH4OAc (4% molar), pH 3.02, 2.0 hr - 20° C.), 0.35%; in data set [1] (0.1 N acetic acid, after addition of NH4OAc (4% molar), pH 3.02, 3.0 hr - 20° C.) it was 0.12%; in data set [1] (0.1 N acetic acid, after addition of NH4OAc (4% molar), pH 3.02, 6.0 hr - 20° C.), 0.16%. Further, the “% aglycone in doxorubicin HCl” value in data set [1] (500 mg in 0.1 N acetic acid (20 ml), 1.0 hr - 20° C., pH 2.62, before addition of NH4OAc) came to 0.17%. Also, the “aglycone contained in lyophilized product” value in data set [3] (Example 40: pH 3.5 with acetic acid, 60° C. for 2 hours, ammonium acetate 1.5% molar) came to 0.12%; in data set [3] (Example 43: pH 4.6-4.8, AMBERLITE IRA-67 acetate 1.5% molar, filtered), 0.10%.

Consider `COc1cccc2c1C(=O)c1c(O)c3c(c(O)c1C2=O)C[C@@](O)(C(=O)CO)C[C@@H]3O[C@H]1C[C@@H](N)[C@H](O)C(C)O1` (stereo partly drawn) [Doxorubicin], for which the solubility entry in data set [5] (in acetone, benzene, chloroform and ethyl ether) is listed as “practically insoluble”; in data set [5] (in water, methanol), “soluble”.

Consider `COc1cccc2c1C(=O)c1c(O)c3c(c(O)c1C2=O)C[C@@](O)(C(=O)CO)C[C@@H]3O[C@H]1C[C@@H](N)[C@@H](O)C(C)O1` (stereo partly drawn) [Epirubicin], for which the solubility result in data set [5] (in acetone, chloroform, and methylene chloride) is “practically insoluble”; in data set [5] (in water, methanol and ethyl alcohol, at a temperature of 50° C.) it was “soluble”.
